The values below come from patent US20150038707A1, “PROCESS FOR MAKING CGRP RECEPTOR ANTAGONISTS” (Merck Sharp & Dohme Corp., priority 2012, published 2015).

Holding throughout (format): in vivo
Assay [1] has as its system Ae. Aegypti, That strain (pyrethroid tolerant). The assay is described as follows: Contact irritancy on pyrethroid tolerant mosquitoes (Example 5). The method, then: (§1) Four compounds of formula (I) were tested for contact irritancy (i.e., movement away from the source after physical contact) at low doses on female Aedes aegypti (Thailand strain) mosquitoes. The contact irritant response was determined by use of the contact irritant assay disclosed by Grieco et al. in “A New Classification System for the Actions of IRS Chemicals Traditionally Used for Malaria Control,” Plos One, Issue 8 (2007) (available at www.plosone.org). The assay used was a cylindrical assembly that included a metal treatment end to which 10 mosquitoes were introduced and a clear receiving chamber. The treatment end included a netting strip (nylon organdy) that was treated with the insecticide of interest at the relevant dose. A butterfly valve separated the treatment end from the remainder of the assembly.
(§2) Each composition was applied to the netting strip at a varied dose via a 1.5 ml acetone solution. Four (4) treatment concentrations were used—0.0025 nmol/cm^2, 0.025 nmol/cm^2, 0.25 nmol/cm^2 and 2.5 nmol/cm^2. Netting was allowed to dry for 15 minutes prior to placement in the cylinder. Control assays were performed with netting treated with acetone only.
(§3) For each run, 10 mosquitoes were transferred into the treatment end of the assembly and, after 30 seconds, the butterfly valve was opened. The valve was closed after 10 minutes and the number of mosquitoes in the clear end (i.e., the number of escaped mosquitoes) was tested.
The contact irritancy protocol of Example 2 was used to determine contact irritancy against mosquitoes (Ae. Aegypti) that had acquired metabolic resistance against pyrethroids. Alphacypermethrin and transfluthrin were also tested. Three mosquito strains were tested—Houston which is pyrethroid susceptible, That which is pyrethroid tolerant and Isla Mujer which is metabolically pyrethroid resistant.

Assay [2] relates to mosquitoes (Ae. aegypti). The assay is described as follows: Compound residual life: contact irritancy (Example 10). The conditions noted are these: for Number escaping (mean +/- SE), treated: 10 mosquitoes per run, 6 runs per net sample. The method, then: as §1
Contact irritancy tests (blind testing) were performed for several samples of compounds 1405 and 1406 at 0 weeks, 2 weeks, 4 weeks, 8 weeks and 12 weeks to determine the residual contact irritancy of the compounds on mosquitoes (Ae. aegypti). Between testing, the nets were hung in the lab and held at a temperature of 27-29° C. and 56-67% relative humidity. Each run was performed 6 times for each sample with 10 mosquitoes used in each run (60 mosquitoes total).

The subject of assay [3] is female Aedes aegypti (Thailand strain) mosquitoes. Nature of the assay: Contact irritancy assay on mosquitoes (Example 2). Conditions: netting treated at 0.0025-2.5 nmol/cm^2; 10 minutes. The method, then:
as §1, §2, §3

The test system of assay [4] is Ae. Aegypti strains Houston, That and Isla Mujer. The assay is described as follows: Spatial repellency on metabolically resistant mosquitoes (Example 6). The method, then:
(§4) The four compounds of formula I described in Example 2 were tested for spatial repellency (directed movement away from the chemical source without the insect making physical contact with the treated surface) at low doses on female Aedes aegypti (Thailand strain) mosquitoes. The spatial repellency response was determined by use of the spatial repellency assay disclosed by Grieco et al. in “A New Classification System for the Actions of IRS Chemicals Traditionally Used for Malaria Control” in Plos One, Issue 8 (2007) (available at www.plosone.org) which is incorporated herein by reference for all relevant and consistent purposes. The assay used was a cylindrical assembly that included a treatment chamber at one end and a control chamber at the other end. The treatment chamber included a netting strip (nylon organdy) that was treated with the insecticide of interest at the relevant dose. The treatment chamber and control chamber were connected by a clear cylinder and were separated from the clear cylinder by butterfly valves. Twenty (20) mosquitoes were introduced into the clear central chamber and the butterfly valves were opened after 30 seconds. After 10 minutes, the valves were closed and the number of mosquitoes in each chamber was counted.
The spatial repellency protocol of Example 3 was used to determine spatial repellency against mosquitoes (Ae. Aegypti) that had acquired metabolic resistance against pyrethroids. DDT and transfluthrin were also tested. Three mosquito strains were tested—Houston which is pyrethroid susceptible, That which is pyrethroid tolerant and Isla Mujer which is metabolically pyrethroid resistant.

In assay [5] the test system is An. Vestitipennis. The assay is described as follows: Repellency field studies in experimental huts, Belize (Example 12). The conditions noted are these: for Reduction (%) vs control hut / Number Collected in Entrance: 2.5 nmole; for Number Collected in Entrance: treated hut. The method, then:
Compound 1405 was tested in field studies in Belize at a concentration of 2.5 nmole/cm^2. The field studies involved use of huts that were equipped with entrance and exit traps. The hut design and collection procedures correspond to those disclosed by Suwonkerd et al. in “The Effect of Host Type on Movement Patters of Aedes aegypti (Diptera: Culicidae) into and out of Experimental Huts in Thailand,” J. Vector. Ecol., vol. 31 (2), p. 311-318 (2006) which is incorporated herein by reference for all relevant and consistent purposes. The huts were equipped with entrance and/or exit traps at entry and exit points (e.g., windows and doors). The huts were randomized and designated as control (no treatment) or treated (with some intervention being evaluated). The relative numbers of mosquitoes entering or leaving the treated vs. control huts was determined. An. Vestitipennis, An. Albimanus, An. Punctimacula, An. Crucians and a large number of other culicines were collected in the traps. An. Vestitipennis comprised the majority of what was collected.

Assay [6] has as its system female Aedes aegypti (Thailand strain) mosquitoes. The assay is described as follows: Spatial repellency assay on mosquitoes (Example 3). Conditions: netting treated at 0.0025-2.5 nmol/cm^2. The method, then: as §4
The compositions were applied to the net strips by the same methods and at the same concentrations as described in Example 2 above. […]

Assay [7] concerns Ae. aegypti mosquitoes. The assay is described as follows: Compound residual life: spatial repellency (Example 9). The method, then:
as §4
The spatial repellency assay of Example 3 was used to determine the residual life of compound 1405 on Ae. aegypti mosquitoes. Compound 1405 (neat, suspended in acetone) was applied by pipette to the netting material and the netting material was maintained at room temperature. The assay was performed at 0, 24 and 48 hours.
Nets were treated and tested at times 0 hour, 24 hour and 48 hour. The nets were held at room temperature between tests. The spatial activity index (“SAI” which varies from −1 to 1 with zero (0) indicating no response) and spatial repellency (SR) were determined. SAI is the measure of the proportion of females in the control chamber over the treated chamber after correcting for the proportion of females in the control chamber.

Setting [8] is: Dose 2.5, Time 0 hr after net treatment.
[9] abbreviates: Dose 2.5, Time 24 hr after net treatment.
[10] abbreviates: Dose 25, Time 0 hr after net treatment.
The mark [11] stands for this setting: Dose 25, Time 24 hr after net treatment.
Setting [12] is: Dose 25, Time 48 hr after net treatment.

Where “and” joins values, the source holds several entries; their conditions need not be identical. Equal entries are not always repeated.

As to `CC1(C)C(C=C(Cl)Cl)C1C(=O)OCc1ccc(F)c(C(F)(F)F)c1F` (centres unmarked) [Compound 1406], the “contact irritancy, tolerant strain (FIG. 4)” value in assay [1] is reported as “contact irritants for tolerant strains”. For the same molecule, the “residual contact irritant activity (in words)” value in assay [2] (12 week test period, nets held at 27-29° C.) is given as “the most residual with the highest level of activity out to 12 weeks”. Further, the “Percent escaping (mean ± SE)” value in assay [2] (Time 0 week) is 80 ± 2% and 87 ± 4% and 87 ± 7% and 87 ± 10%; in assay [2] (Time 2 week) it was 57 ± 4% and 63 ± 5% and 58 ± 7% and 62 ± 8%; in assay [2] (Time 4 week), 50 ± 10% and 47 ± 4% and 45 ± 4% and 35 ± 8%; in assay [2] (Time 8 week), 40 ± 10% and 37 ± 2% and 27 ± 7% and 28 ± 9%; in assay [2] (Time 12 week) it was 37 ± 4% and 31 ± 4% and 22 ± 6% and 19 ± 5%. The “Number escaping (mean +/- SE), treated” value in assay [2] (Time 0 week) is 3.8 ± 0.5 and 3.2 ± 0.5 and 3.2 ± 1.2 and 4.0 ± 1.0; in assay [2] (Time 2 week), 2.5 ± 0.8 and 2.7 ± 0.3 and 2.2 ± 0.2; in assay [2] (Time 4 week), 2.0 ± 0.4 and 2.3 ± 0.5 and 2.5 ± 0.4 and 2.5 ± 0.8. Besides, the “contact irritancy (FIG. 1)” value in assay [3] was “showed contact irritancy at relatively low doses”. For the same molecule, the “spatial repellency, all strains (FIG. 5)” value in assay [4] is reported as “spatial repellants for all strains”.

With `CC1(C)C(C=C(Cl)C(F)(F)F)C1C(=O)OCc1ccc(F)c(C(F)(F)F)c1F` (centres unmarked) [Compound 1405], in assay [5] (2.5 nmole/cm^2, four day study), the “effectiveness as a repellent in field huts (FIGS. 6-9)” value is “extremely effective as a repellent”. Further, the “Reduction (%) vs control hut” value is 97% in assay [5] (Day 1); 84% in assay [5] (Day 2); 66% in assay [5] (Day 3); 65% in assay [5] (Day 4); 82% in assay [5] (Total of days 1-4). The “Number Collected in Entrance” value in assay [5] (Day 1) worked out at 37; in assay [5] (Day 2) it was 99; in assay [5] (Day 3), 173; in assay [5] (Day 4) it was 232; in assay [5] (Total of days 1-4), 541. For the same molecule, in assay [6], the “spatial repellency, dose compared with DDT (FIG. 2)” value is recorded as “showed repellency at a lower dose than DDT”. For the same molecule, the “contact irritancy, tolerant strain (FIG. 4)” value in assay [1] is listed as “contact irritants for tolerant strains”. The “Percent escaping (mean ± SE)” value in assay [2] (Time 0 week) is 90 ± 5% and 80 ± 5% and 85 ± 4% and 88 ± 5%; in assay [2] (Time 2 week), 47 ± 6% and 42 ± 7% and 47 ± 3% and 47 ± 4%. For the same molecule, the “Number escaping (mean +/- SE), treated” value in assay [2] (Time 2 week) was 1.7 ± 0.6 and 2.2 ± 0.7 and 1.7 ± 0.4; in assay [2] (Time 8 week) it was 1.8 ± 0.5 and 2.2 ± 0.5 and 1.8 ± 0.9 and 1.5 ± 0.6. Also, the “SAI (SE) (spatial activity index, -1 to 1)” value in assay [7] (setting [8]) was 0.5(0.1); in assay [7] (setting [9]) it was 0.3(0.1); in assay [7] (setting [10]), 0.3(0.1); in assay [7] (setting [11]), 0.5(0.1); in assay [7] (setting [12]) it was 0.4(0.1). Further, the “SR (spatial repellency)” value is recorded as 21.5 in assay [7] (setting [8]); 18 in assay [7] (setting [9]); 21.5 in assay [7] (setting [10]); 22.5 in assay [7] (setting [11]); 22.5 in assay [7] (setting [12]). In addition, the “contact irritancy (FIG. 1)” value in assay [3] was “showed contact irritancy at relatively low doses”. Further, the “spatial repellency, all strains (FIG. 5)” value in assay [4] is listed as “spatial repellants for all strains”.
